Assay results published in ChEMBL document CHEMBL5543084, “Development of cannabidiol derivatives as potent broad-spectrum antibacterial agents with membrane-disruptive mechanism” (Eur J Med Chem, 2024).
Values after ≈ are worked out from the molar mass of the structure shown.

Assays:
Escherichia coli [1] = assay: Antibacterial activity against Escherichia coli ATCC 25922 assessed as inhibition of bacterial growth incubated for 24 hrs by broth dilution method; type: functional
Staphylococcus aureus [2] = assay: Drug resistance, ratio of MIC for Staphylococcus aureus NCTC 10442 after 21 passages to MIC for Staphylococcus aureus NCTC 10442 during first exposure; type: functional
Escherichia coli [3] = assay: Bactericidal activity against Escherichia coli ATCC 25922 assessed as bacterial reduction at 8 time of MIC concentration incubated for 2 hrs by time-kill assay; type: functional
[4] = Hemolytic activity against rabbit blood cells incubated for 1 hr relative to control; type: toxicity, cell-based, Oryctolagus cuniculus, Erythrocyte; conditions: rabbit blood cells (erythrocytes)
Staphylococcus aureus [5] = assay: In vivo antibacterial activity against Staphylococcus aureus ATCC 29213 infected C57BL6 mouse corneal infection model assessed as reduction in bacterial burden at 50 mg/ml, TOP 4 times in a day for 3 consecutive days; type: functional; conditions: time 3 day
Pseudomonas aeruginosa [6] = assay: In vivo antibacterial activity against Pseudomonas aeruginosa ATCC 9027 infected C57BL6 mouse corneal infection model assessed as reduction in bacterial burden at 3 mg/ml, TOP 4 times in a day for 2 consecutive days; type: functional; conditions: time 2 day
Staphylococcus aureus [7] = assay: Antibacterial activity against methicillin-resistant Staphylococcus aureus NCTC 10442 assessed as inhibition of bacterial growth incubated for 24 hrs by broth dilution method; type: functional
Acinetobacter baumannii [8] = assay: Antibacterial activity against Acinetobacter baumannii R2889 assessed as inhibition of bacterial growth incubated for 24 hrs by broth dilution method; type: functional
Pseudomonas aeruginosa [9] = assay: Antibacterial activity against Pseudomonas aeruginosa ATCC 9027 assessed as inhibition of bacterial growth incubated for 24 hrs by broth dilution method; type: functional
Klebsiella pneumoniae [10] = assay: Antibacterial activity against Klebsiella pneumoniae ATCC 14581 assessed as inhibition of bacterial growth incubated for 24 hrs by broth dilution method; type: functional
Staphylococcus aureus [11] = assay: Antibacterial activity against Staphylococcus aureus ATCC 29213 assessed as inhibition of bacterial growth incubated for 24 hrs by broth dilution method; type: functional
Staphylococcus aureus [12] = assay: Antibacterial activity against methicillin-resistant Staphylococcus aureus N315 assessed as inhibition of bacterial growth incubated for 24 hrs by broth dilution method; type: functional
Klebsiella pneumoniae [13] = assay: Antibacterial activity against Klebsiella pneumoniae ATCC 10031 assessed as inhibition of bacterial growth incubated for 24 hrs by broth dilution method; type: functional
Acinetobacter baumannii [14] = assay: Antibacterial activity against Acinetobacter baumannii ATCC 17978 assessed as inhibition of bacterial growth incubated for 24 hrs by broth dilution method; type: functional

SMILES | MIC (Escherichia coli [1]) [µg/mL] | Ratio (Staphylococcus aureus [2]) | Activity (Escherichia coli [3]) [log10FFU/ml] | HC50 at 1 h [4] [µg/mL] | Activity (Staphylococcus aureus [5]) [log10FFU/ml] | Activity (Pseudomonas aeruginosa [6]) [log10FFU/ml] | MIC (Staphylococcus aureus [7]) [µg/mL] | MIC (Acinetobacter baumannii [8]) [µg/mL] | MIC (Pseudomonas aeruginosa [9]) [µg/mL] | MIC (Klebsiella pneumoniae [10]) [µg/mL] | MIC (Staphylococcus aureus [11]) [µg/mL] | MIC (Staphylococcus aureus [12]) [µg/mL] | MIC (Klebsiella pneumoniae [13]) [µg/mL] | MIC (Acinetobacter baumannii [14]) [µg/mL]
CC1(C)S[C@@H]2[C@H](NC(=O)[C@H](N)c3ccc(O)cc3)C(=O)N2[C@H]1C(=O)O [AMOXICILLIN] | 6.25 (≈ 17.1 µM) | 8 | 2.9 | > 200 | – | – | – | – | – | – | – | – | – | –
CCn1cc(C(=O)O)c(=O)c2cc(F)c(N3CCNCC3)cc21 [NORFLOXACIN] | – | 128 | – | – | – | – | – | – | – | – | – | – | – | –
NC[C@H]1O[C@H](O[C@H]2[C@H](O)[C@@H](O[C@H]3O[C@H](CO)[C@@H](O)[C@H](N)[C@H]3O)[C@H](N)C[C@@H]2N)[C@H](N)C[C@@H]1O [TOBRAMYCIN] | – | – | – | – | 5.21 | 4.64 | – | – | – | – | – | – | – | –
C=C(C)[C@@H]1CCC(C)=C[C@H]1c1c(OCCCCNC)cc(CCCCC)cc1OCCCCNC | 50 (≈ 103 µM) | – | – | 107 | – | – | 3.12 (≈ 6.45 µM) | 25 (≈ 51.6 µM) | > 50 | 50 (≈ 103 µM) | 3.12 (≈ 6.45 µM) | 3.12 (≈ 6.45 µM) | 25 (≈ 51.6 µM) | 25 (≈ 51.6 µM)
C=C(C)[C@@H]1CCC(C)=C[C@H]1c1c(OCCCCCCNC(=N)N)cc(CCCCC)cc1OCCCCCCNC(=N)N | 12.5 (≈ 20.9 µM) | – | – | 72.6 | – | – | 1.56 (≈ 2.61 µM) | 12.5 (≈ 20.9 µM) | > 50 | > 50 | 0.78 (≈ 1.31 µM) | 1.56 (≈ 2.61 µM) | 25 (≈ 41.9 µM) | 12.5 (≈ 20.9 µM)
C=C(C)[C@@H]1CCC(C)=C[C@H]1c1c(OCCCCCBr)cc(CCCCC)cc1OCCCCCBr | > 50 | – | – | > 200 | – | – | > 50 | > 50 | > 50 | > 50 | > 50 | > 50 | > 50 | > 50
C=C(C)[C@@H]1CCC(C)=C[C@H]1c1c(OCC(=O)N[C@@H](CCCNC(=N)N)C(=O)OC)cc(CCCCC)cc1OCC(=O)N[C@@H](CCCNC(=N)N)C(=O)OC | 6.25 (≈ 8.11 µM) | – | – | > 200 | – | – | 0.78 (≈ 1.01 µM) | 25 (≈ 32.4 µM) | 50 (≈ 64.9 µM) | 25 (≈ 32.4 µM) | 1.56 (≈ 2.02 µM) | 1.56 (≈ 2.02 µM) | 25 (≈ 32.4 µM) | 12.5 (≈ 16.2 µM)
C=C(C)[C@@H]1CCC(C)=C[C@H]1c1c(OCCCCN(CCO)CCO)cc(CCCCC)cc1OCCCCN(CCO)CCO | 100 (≈ 158 µM) | – | – | > 200 | – | – | 25 (≈ 39.5 µM) | 50 (≈ 79 µM) | > 50 | 50 (≈ 79 µM) | 25 (≈ 39.5 µM) | 25 (≈ 39.5 µM) | 25 (≈ 39.5 µM) | > 50
C=C(C)[C@@H]1CCC(C)=C[C@H]1c1c(OCCCCN(C)CCCNC)cc(CCCCC)cc1OCCCCN(C)CCCNC | 3.12 (≈ 4.98 µM) | – | – | > 200 | – | – | 1.56 (≈ 2.49 µM) | 3.12 (≈ 4.98 µM) | 3.12 (≈ 4.98 µM) | 3.12 (≈ 4.98 µM) | 1.56 (≈ 2.49 µM) | 1.56 (≈ 2.49 µM) | 1.56 (≈ 2.49 µM) | 1.56 (≈ 2.49 µM)
